Source: patent US20130184302A1, “METHODS FOR TREATING IRRITABLE BOWEL SYNDROME (IBS) AND INFECTIONS” (priority 2011, published 2013)

Key:
Format in all cases: in vivo, human
[1] = test system: patients with non-constipation IBS (non-C IBS); experiment: Adverse events and discontinuation, rifaximin 550 mg TID study; details: 550 mg rifaximin TID
[2] = test system: patients with non-constipation IBS (non-C IBS); experiment: Adequate relief of IBS symptoms and IBS symptom of bloating (weekly SGA, daily measures), rifaximin 550 mg TID 14 days
Excerpt: A measure of efficacy was based on subjects' answers to the Weekly Subject Global Assessment (SGA) questions over the 4 week study duration in relation to their IBS symptoms. […] The SGA question was asked weekly as follows: “In the past 7 days, have you had adequate relief of your IBS symptom of bloating?” (Yes/No).
The primary efficacy endpoint of the study was the proportion of subjects who achieved adequate relief of IBS symptoms for at least 2 weeks during the first 4 weeks of the 10-week follow-up phase.
Two measures of efficacy were assessed.
Subjects were questioned on the relief of overall IBS symptoms and bloating. […] The analyses defined success as a “yes” response to questions regarding adequate relief.
All subpopulations in the study responded to therapy. Baseline severity was determined during screening for Abdominal Pain/Discomfort and Bloating, and the number, type (normal, hard, loose) and urgency of bowel movements. Duration of effect was assessed in a ten week follow-up period.

[3] = test system: C. difficile infection (CDI); experiment: CDI trial: subgroup analysis of diarrhea at TOC; details: for Diarrhea, number of subjects / Diarrhea, percent of subjects / No Diarrhea, number of subjects / No Diarrhea, percent of subjects: at TOC; for Diarrhea at TOC: Treatment Difference: Rifaximin vs Vancomycin
Excerpt: Tables 42 and 43 set forth a subgroup analysis of diarrhea at TOC.

[4] = test system: C. difficile infection (CDI); experiment: CDI trial: efficacy adjusting for concomitant medication usage
Excerpt: Table 48 sets forth the efficacy adjusting for concomitant medication usage.

[5] = test system: subjects with IBS; experiment: Analysis of two studies after 3 months: global IBS symptoms, abdominal pain, bloating responders; details: for Responders: Abdominal pain reduction of 1 point in median: at least 2 weeks during PEP; for Global IBS symptoms: at least 2 out of 4 weeks adequate relief during weeks 3 through 6 (weekly question): 550 mg TID 14 days
Excerpt: A measure of efficacy is based on subjects' answers to the Weekly Subject Global Assessment (SGA) questions over the study duration in relation to their IBS symptoms.
The study endpoints of the studies were Global IBS symptoms and AUC in abdominal pain during the study.
The primary and secondary endpoints evaluated in this study were the effect of treatment on the percentage of subjects who reported adequate relief of Global IBS symptoms, reduction in abdominal pain and the adequate relief of IBS symptom of bloating.

[6] = Age Group: <65 (N = 281), 550 mg TID
[7] = Gender: Female (N = 226), 550 mg TID
[8] = Gender: Male (N = 85), 550 mg TID
[9] = IBS Subtype: Alternating-predominant, 550 mg TID
[10] = IBS Subtype: Diarrhoea-predominant, 550 mg TID
[11] = Population: ITT (N = 315), 550 mg TID
[12] = Population: PP (N = 311), 550 mg TID
[13] = Population: PP (N = 311), weekly SGA, 550 mg TID
[14] = Race: Non-White (N = 31), 550 mg TID
[15] = Race: White (N = 280), 550 mg TID
[16] = oral rifaximin 550 mg TID 14 days vs subjects not taking rifaximin
[17] = weekly SGA, at least 2 of Weeks 3 through 6, 550 mg TID (N = 315)
[18] = weekly SGA, 550 mg TID (N = 315)
[19] = subgroup Age <65, Rifaximin N = 69, Vancomycin N = 62
[20] = subgroup Age >=65, Rifaximin N = 39, Vancomycin N = 49
[21] = subgroup Female, Rifaximin N = 68, Vancomycin N = 64
[22] = subgroup Male, Rifaximin N = 40, Vancomycin N = 47
[23] = Rifaximin N = 109, Vancomycin N = 112
[24] = Rifaximin N = 117, Vancomycin N = 115

## CO[C@H]1/C=C/O[C@@]2(C)Oc3c(C)c(O)c4c(O)c(c5c(nc6cc(C)ccn65)c4c3C2=O)NC(=O)/C(C)=C\C=C\[C@H](C)[C@H](O)[C@@H](C)[C@@H](O)[C@@H](C)[C@H](OC(C)=O)[C@@H]1C [Rifaximin, (2S,16Z,18E,20S,21S,22R, 23R,24R,25S,26S,27S,28E)-5,6,21,23,25 Pentahydroxy-27-methoxy-2,4,11,16,20,22,24,26-octamethyl-2,7-(epoxypentadeca-(1,11,13)trienimino) benzofuro (4,5-e) pyrido(1,2,-a) benzimidazole-1,15(2H)-dione,25-acetate]
[1]
  Subjects with skin or subcutaneous tissue disorders: 1.3%
[2]; [6]
  Adequate Relief of IBS symptom of Bloating: Failure: 171 (60.9%)
  Adequate Relief of IBS symptom of Bloating: Success: 110 (39.1%)
  Adequate Relief of IBS symptoms: Failure: 171 (60.9%)
  Adequate Relief of IBS symptoms: Success: 110 (39.1%)
[2]; Age Group: > = 65, 550 mg TID
  Adequate Relief of IBS symptom of Bloating: Failure: 16 (53.3%)
  Adequate Relief of IBS symptom of Bloating: Success: 14 (46.7%)
  Adequate Relief of IBS symptoms: Failure: 16 (53.3%)
  Adequate Relief of IBS symptoms: Success: 14 (46.7%)
[2]; [7]
  Adequate Relief of IBS symptom of Bloating: Failure: 128 (56.6%)
  Adequate Relief of IBS symptom of Bloating: Success: 98 (43.4%)
  Adequate Relief of IBS symptoms: Failure: 130 (57.5%)
  Adequate Relief of IBS symptoms: Success: 96 (42.5%)
[2]; [8]
  Adequate Relief of IBS symptom of Bloating: Failure: 59 (69.4%)
  Adequate Relief of IBS symptom of Bloating: Success: 26 (30.6%)
  Adequate Relief of IBS symptoms: Failure: 57 (67.1%)
  Adequate Relief of IBS symptoms: Success: 28 (32.9%)
[2]; [9]
  Adequate Relief of IBS symptom of Bloating: Failure: 19 (55.9%)
  Adequate Relief of IBS symptom of Bloating: Success: 15 (44.1%)
  Adequate Relief of IBS symptoms: Failure: 21 (61.8%)
  Adequate Relief of IBS symptoms: Success: 13 (38.2%)
[2]; [10]
  Adequate Relief of IBS symptom of Bloating: Failure: 168 (60.6%)
  Adequate Relief of IBS symptom of Bloating: Success: 109 (39.4%)
  Adequate Relief of IBS symptoms: Failure: 166 (59.9%)
  Adequate Relief of IBS symptoms: Success: 111 (40.1%)
[2]; [11]
  Adequate Relief of IBS symptom of Bloating Based on Daily Measures: Failure: 182 (57.8%)
  Adequate Relief of IBS symptom of Bloating Based on Daily Measures: Success: 133 (42.2%)
  Adequate Relief of IBS symptoms Based on Daily Measures: Failure: 200 (63.5%)
  Adequate Relief of IBS symptoms Based on Daily Measures: Success: 115 (36.5%)
[2]; [12]
  Adequate Relief of IBS symptom of Bloating Based on Daily Measures: Failure: 180 (57.9%)
  Adequate Relief of IBS symptom of Bloating Based on Daily Measures: Success: 131 (42.1%)
  Adequate Relief of IBS symptoms Based on Daily Measures: Failure: 196 (63.0%)
  Adequate Relief of IBS symptoms Based on Daily Measures: Success: 115 (37.0%)
[2]; [13]
  Adequate Relief of IBS symptom of Bloating: Failure: 187 (60.1%)
  Adequate Relief of IBS symptom of Bloating: Success: 124 (39.9%)
  Adequate Relief of IBS symptoms: Failure: 187 (60.1%)
  Adequate Relief of IBS symptoms: Success: 124 (39.9%)
[2]; [14]
  Adequate Relief of IBS symptom of Bloating: Failure: 17 (54.8%)
  Adequate Relief of IBS symptom of Bloating: Success: 14 (45.2%)
  Adequate Relief of IBS symptoms: Failure: 16 (51.6%)
  Adequate Relief of IBS symptoms: Success: 15 (48.4%)
[2]; [15]
  Adequate Relief of IBS symptom of Bloating: Failure: 170 (60.7%)
  Adequate Relief of IBS symptom of Bloating: Success: 110 (39.3%)
  Adequate Relief of IBS symptoms: Failure: 171 (61.1%)
  Adequate Relief of IBS symptoms: Success: 109 (38.9%)
[2]; [16]
  Answers to weekly SGA question on adequate relief of IBS symptom of bloating: responded “Yes” more often
  Answers to weekly SGA question on adequate relief of IBS symptoms: responded “Yes” more often
[2]; [17]
  Adequate Relief of IBS symptom of Bloating: Success: 125 (39.7%)
  Adequate Relief of IBS symptoms: Success: 125 (39.7%)
[2]; [18]
  Adequate Relief of IBS symptom of Bloating: Failure: 190 (60.3%)
  Adequate Relief of IBS symptoms: Failure: 190 (60.3%)
[3]; [19]
  Diarrhea, number of subjects: 16
  Diarrhea, percent of subjects: (23%)
  No Diarrhea, number of subjects: 53
  No Diarrhea, percent of subjects: (77%)
[3]; [20]
  Diarrhea, number of subjects: 6
  Diarrhea, percent of subjects: (15%)
  No Diarrhea, number of subjects: 33
  No Diarrhea, percent of subjects: (85%)
[3]; [21]
  Diarrhea, number of subjects: 14
  Diarrhea, percent of subjects: (21%)
  No Diarrhea, number of subjects: 54
  No Diarrhea, percent of subjects: (79%)
[3]; [22]
  Diarrhea, number of subjects: 8
  Diarrhea, percent of subjects: (20%)
  No Diarrhea, number of subjects: 32
  No Diarrhea, percent of subjects: (80%)
[3]; subgroup Age <65
  Diarrhea at TOC: Treatment Difference: −3.8%
[3]; subgroup Age >=65
  Diarrhea at TOC: Treatment Difference: 3.0%
[3]; subgroup Female
  Diarrhea at TOC: Treatment Difference: −3.4%
[3]; subgroup Male
  Diarrhea at TOC: Treatment Difference: 1.3%
[4]; [23]
  Diarrhea: No, number of subjects: 71
  Diarrhea: No, percent of subjects: (65%)
  Diarrhea: Yes, number of subjects: 38
  Diarrhea: Yes, percent of subjects: (35%)
[4]; [24]
  Clinical Success: No, number of subjects: 59
  Clinical Success: No, percent of subjects: (50%)
  Clinical Success: Yes, number of subjects: 58
  Clinical Success: Yes, percent of subjects: (50%)
[4]; Rifaximin vs Vancomycin
  Clinical Success: Treatment Difference: −10.4%
  Diarrhea: Treatment Difference: −8.1%
[5]; Combined
  IBS symptom of Bloating: at least 2 out of 4 weeks adequate relief during weeks 3 through 6: 30% vs 40%
  Responders: Abdominal Pain reduction of 2 point in mean: 18% vs 25%
  Responders: Abdominal Pain reduction of 2 point in median: 32% vs 39%
  Responders: Abdominal Pain reduction of 3 point in mean: 6% vs 7%
  Responders: Abdominal Pain reduction of 3 point in median: 18% vs 21%
  Responders: Abdominal pain reduction of 1 point in mean: 42% vs 52%
  Responders: Daily abdominal pain <2: 31% vs 39%
  Responders: Overall reduction of mean weekly abdominal pain by > = 25%: 47% vs 57%
  Responders: Overall reduction of mean weekly abdominal pain by > = 50%: 28% vs 35%
  Responders: Overall reduction of mean weekly abdominal pain by > = 75%: 11% vs 14%
  Responders: Overall reduction of median weekly abdominal pain by > = 25%: 52% vs 62%
  Responders: Overall reduction of median weekly abdominal pain by > = 50%: 34% vs 44%
  Responders: Overall reduction of median weekly abdominal pain by > = 75%: 18% vs 21%
  Responders: Abdominal pain reduction of 1 point in median: 53% vs 63%
[5]; Study 2
  IBS symptom of Bloating: at least 2 out of 4 weeks adequate relief during weeks 3 through 6: 32% vs 41%
  Responders: Abdominal Pain reduction of 2 point in mean: 18% vs 25%
  Responders: Abdominal Pain reduction of 2 point in median: 30% vs 41%
  Responders: Abdominal Pain reduction of 3 point in mean: 6% vs 7%
  Responders: Abdominal Pain reduction of 3 point in median: 17% vs 21%
  Responders: Abdominal pain reduction of 1 point in mean: 43% vs 52%
  Responders: Daily abdominal pain <2: 31% vs 39%
  Responders: Overall reduction of mean weekly abdominal pain by > = 25%: 47% vs 58%
  Responders: Overall reduction of mean weekly abdominal pain by > = 50%: 29% vs 35%
  Responders: Overall reduction of mean weekly abdominal pain by > = 75%: 11% vs 14%
  Responders: Overall reduction of median weekly abdominal pain by > = 25%: 52% vs 62%
  Responders: Overall reduction of median weekly abdominal pain by > = 50%: 35% vs 44%
  Responders: Overall reduction of median weekly abdominal pain by > = 75%: 17% vs 20%
  Responders: Abdominal pain reduction of 1 point in median: 53% vs 62%
[5]; Study [1]
  IBS symptom of Bloating: at least 2 out of 4 weeks adequate relief during weeks 3 through 6: 29% vs 40%
  Responders: Abdominal Pain reduction of 2 point in mean: 18% vs 26%
  Responders: Abdominal Pain reduction of 2 point in median: 33% vs 37%
  Responders: Abdominal Pain reduction of 3 point in mean: 6% vs 7%
  Responders: Abdominal Pain reduction of 3 point in median: 19% vs 22%
  Responders: Abdominal pain reduction of 1 point in mean: 41% vs 52%
  Responders: Overall reduction of mean weekly abdominal pain by > = 25%: 47% vs 56%
  Responders: Overall reduction of mean weekly abdominal pain by > = 50%: 28% vs 36%
  Responders: Overall reduction of mean weekly abdominal pain by > = 75%: 10% vs 14%
  Responders: Overall reduction of median weekly abdominal pain by > = 25%: 52% vs 63%
  Responders: Overall reduction of median weekly abdominal pain by > = 50%: 34% vs 44%
  Responders: Overall reduction of median weekly abdominal pain by > = 75%: 19% vs 23%
  Responders: Abdominal pain reduction of 1 point in median: 52% vs 63%
[5]; Study [1], at least 50% of days in a week for at least 2 weeks during PEP
  Responders: Daily abdominal pain <2: 32% vs 40%
[5]; first column (Study 1), second figure of 'x vs y'
  Global IBS symptoms: at least 2 out of 4 weeks adequate relief during weeks 3 through 6 (weekly question): 41%
[5]; second column (Study 2)
  Global IBS symptoms: at least 2 out of 4 weeks adequate relief during weeks 3 through 6 (weekly question): 41%
[5]; third column (Combined)
  Global IBS symptoms: at least 2 out of 4 weeks adequate relief during weeks 3 through 6 (weekly question): 41%
